Test results reported in article PMC11063020, “Antiviral and anti-inflammatory activities of chemical constituents from twigs of Mosla chinensis Maxim” (Natural Products and Bioprospecting, 2024).
Where two headings read alike, the source gives them in different places.

Tests used:
[1] = Cytotoxicity (CC50) in macrophages; format: cell-based; details: mouse
Excerpt: Table 3 Inhibitory effect of 9, 22, 23 and 25 on LSP-induced NO production in macrophages | column: CC50^c (µM)

[2] = system: NO production in LPS-activated RAW 264.7 cells; test: Nitric oxide production assay in LPS-activated RAW 264.7 cells; format: cell-based; details: Mus musculus, read-out: IC50 (50% inhibitory concentration), LPS-induced NO production
[3] = system: nucleoprotein expression in influenza virus-infected MDCK cells; format: cell-based, influenza A virus; details: 20 at 50 μM, 2, 5 and 8 h
[4] = biological target: hemagglutinin (HA) of influenza A/WSN/33/2009 (H1N1) (Influenza A virus, UniProt P03454); details: chicken RBCs without virus
Chain of hemagglutinin (HA) of influenza A/WSN/33/2009 (H1N1) (P03454 18-342 limits assumed): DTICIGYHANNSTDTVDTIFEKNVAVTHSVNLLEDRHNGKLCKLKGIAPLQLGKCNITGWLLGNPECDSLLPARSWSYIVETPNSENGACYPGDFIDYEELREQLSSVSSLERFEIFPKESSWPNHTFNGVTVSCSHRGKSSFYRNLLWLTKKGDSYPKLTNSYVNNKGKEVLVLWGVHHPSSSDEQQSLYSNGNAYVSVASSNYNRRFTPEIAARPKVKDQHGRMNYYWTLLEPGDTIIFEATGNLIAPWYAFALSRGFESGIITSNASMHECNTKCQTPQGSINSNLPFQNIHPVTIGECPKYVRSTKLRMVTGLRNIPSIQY
Chain of hemagglutinin (HA) of influenza A/WSN/33/2009 (H1N1) (P03454 344-565 partner limits assumed): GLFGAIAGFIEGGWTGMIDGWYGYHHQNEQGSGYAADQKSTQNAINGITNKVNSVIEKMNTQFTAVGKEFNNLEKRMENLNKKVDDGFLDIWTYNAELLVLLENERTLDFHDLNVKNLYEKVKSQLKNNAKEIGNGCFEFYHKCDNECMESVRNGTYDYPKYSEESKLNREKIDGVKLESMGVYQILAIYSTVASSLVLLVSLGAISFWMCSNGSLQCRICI

[5] = system: A/WSN/33/2009 (H1N1) virus; test: microbe, parasite or virus in culture; format: cell-based; details: Influenza A virus, MDCK, 48 h; read-out: IC50 against A/WSN/33/2009 (H1N1) virus
[6] = system: A/WSN/33/2009 (H1N1) virus in MDCK cells; format: cell-based, influenza A virus; details: 20 at 50 μM, versus DMSO group
[7] = RAW264.7, LPS (1 μg/ml) activated RAW 264.7 cells, 24 h
[8] = macrophages, read-out: CC50 (50% cytotoxic concentration)

Structure (SMILES)	IC50 [2, 7]	CC50 [1, 8]	other results
O=c1cc(-c2ccc(O)c(O)c2)oc2cc(O)cc(O)c12 [Compound 9, luteolin]	22.8 µM		CC50 [1]: > 50 µM
COC(=O)[C@H]1c2c(/C=C/C(=O)O[C@H](Cc3ccc(O)c(O)c3)C(=O)O)ccc(O)c2O[C@@H]1c1ccc(O)c(O)c1 [Compound 20, methyl lithospermate]			nucleoprotein protein expression (western blot) [3]: dramatically reduce the nucleoprotein protein expression; effect of the compound alone on red blood cells [4]: no effect on red blood cells; IC50 [5]: 20.5 µM; virus population / nucleoprotein distribution in infected cells (fluorescence microscopy) [6]: influenza virus could be inhibited
COC(=O)[C@H]1Oc2ccc(/C=C/C(=O)O/C=C\c3ccc(O)c(O)c3)cc2O[C@H]1c1ccc(O)c(O)c1 [Compound 22, hyprhombins A]	20.5 µM	> 50 µM	
COC(=O)C[C@@H](OC(=O)/C=C/c1ccc(O)c(O)c1)c1ccc(O)c(O)c1 [Compound 23, 3-(3ʹʹʹ,4ʹʹʹ-dihydroxyphenyl)-acrylic acid 1-(3ʹʹ,4ʹʹ-dihydroxyphenyl)-2-methoxycarbonylethyl ester]	27.7 µM	> 50 µM	
COC(=O)[C@H](Cc1ccc(O)c(O)c1)OC(=O)/C=C/c1ccc(O)c2oc(-c3ccc(O)c(O)c3)cc12 [Compound 25, methyl salvianol acid C]	30.1 µM	> 50 µM	
[H]/N=C(/NC)NCCC[C@H](N)C(=O)O [L-NMMA, reference compound]		> 50 µM	IC50 ([2]; RAW264.7, 24 h): 21.8 µM
CCOC(=O)C1=C[C@@H](OC(CC)CC)[C@H](NC(C)=O)[C@@H](N)C1 [oseltamivir, reference compound]			IC50 [5]: 6.85 µM
